Data published in ChEMBL document CHEMBL5500384, “New synergistic benzoquinone scaffolds as inhibitors of mycobacterial cytochrome bc1 complex to treat multi-drug resistant tuberculosis” (Eur J Med Chem, 2024).
Active and inactive are the calls of the source. The rule behind the calls is not given here.

Tests used:
[1] = test system: Mycolicibacterium smegmatis; experiment: Antibacterial activity against Mycobacterium smegmatis ATCC 14468 assessed as reduction in bacterial growth at 3 ug/ml measured every 6 hrs by spectrometry analysis; format: functional, organism-based; conditions: dose 3.0 µg/ml
[2] = test system: Mycolicibacterium smegmatis; experiment: Antibacterial activity against Mycobacterium smegmatis ATCC 14468 assessed as log2 fold change in methylase expression at 3 ug/ml incubated for 12 hrs by mass spectrometric analysis; format: functional; conditions: dose 3 µg/ml
[3] = test system: Mycolicibacterium smegmatis; experiment: Antibacterial activity against Mycobacterium smegmatis ATCC 14468 assessed as log2 fold change in membrane transport protein expression at 3 ug/ml incubated for 12 hrs by mass spectrometric analysis; format: functional; conditions: dose 3 µg/ml
[4] = test system: Mycolicibacterium smegmatis; experiment: Antibacterial activity against Mycobacterium smegmatis ATCC 14468 assessed as log2 fold change in ABC transporter ATP binding protein expression at 3 ug/ml incubated for 12 hrs by mass spectrometric analysis; format: functional; conditions: dose 3 µg/ml
[5] = test system: Mycolicibacterium smegmatis; experiment: Antibacterial activity against Mycobacterium smegmatis ATCC 14468 assessed as log2 fold change in TnpC protein expression at 3 ug/ml incubated for 12 hrs by mass spectrometric analysis; format: functional; conditions: dose 3 µg/ml
[6] = test system: Mycolicibacterium smegmatis; experiment: Antibacterial activity against Mycobacterium smegmatis ATCC 14468 assessed as log2 fold change in GluD expression at 3 ug/ml incubated for 12 hrs by mass spectrometric analysis; format: functional; conditions: dose 3 µg/ml
[7] = test system: Mycolicibacterium smegmatis; experiment: Antibacterial activity against Mycobacterium smegmatis ATCC 14468 assessed as log2 fold change in TrkA expression at 3 ug/ml incubated for 12 hrs by mass spectrometric analysis; format: functional; conditions: dose 3 µg/ml
[8] = test system: Mycolicibacterium smegmatis; experiment: Antibacterial activity against Mycobacterium smegmatis ATCC 14468 assessed as log2 fold change in integral membrane protein expression at 3 ug/ml incubated for 12 hrs by mass spectrometric analysis; format: functional; conditions: dose 3 µg/ml
[9] = test system: Mycolicibacterium smegmatis; experiment: Antibacterial activity against Mycobacterium smegmatis ATCC 14468 assessed as log2 fold change in MmpL protein expression at 3 ug/ml incubated for 12 hrs by mass spectrometric analysis; format: functional; conditions: dose 3 µg/ml
[10] = test system: Mycolicibacterium smegmatis; experiment: Antibacterial activity against Mycobacterium smegmatis ATCC 14468 assessed as log2 fold change in shikimate transporter expression at 3 ug/ml incubated for 12 hrs by mass spectrometric analysis; format: functional; conditions: dose 3 µg/ml
[11] = test system: Mycolicibacterium smegmatis; experiment: Antibacterial activity against Mycobacterium smegmatis ATCC 14468 assessed as log2 fold change in probable cytochrome c oxidase subunit 3 expression at 3 ug/ml incubated for 12 hrs by mass spectrometric analysis; format: functional; conditions: dose 3 µg/ml
[12] = test system: Mycolicibacterium smegmatis; experiment: Antibacterial activity against Mycobacterium smegmatis ATCC 14468 assessed as log2 fold change in cytochrome P450 107B1 expression at 3 ug/ml incubated for 12 hrs by mass spectrometric analysis; format: functional; conditions: dose 3 µg/ml
[13] = test system: Mycolicibacterium smegmatis; experiment: Antibacterial activity against Mycobacterium smegmatis ATCC 14468 assessed as log2 fold change in cytochrome bc1 complex Rieske-iron-sulfur subunit expression at 3 ug/ml incubated for 12 hrs by mass spectrometric analysis; format: functional; conditions: dose 3 µg/ml
[14] = test system: Mycolicibacterium smegmatis; experiment: Antibacterial activity against Mycobacterium smegmatis ATCC 14468 assessed as log2 fold change in cytochrome bd-type quinol oxidase, subunit 1 expression at 3 ug/ml incubated for 12 hrs by mass spectrometric analysis; format: functional; conditions: dose 3 µg/ml
[15] = Cytotoxicity against african green monkey Vero cells assessed as cell viability at 12.5 ug/ml by MTT assay; format: toxicity, cell-based; conditions: chlorocebus sabaeus, at 12.5 µg/mL, read-out: Activity
[16] = Cytotoxicity against african green monkey Vero cells assessed as cell viability at 6.25 ug/ml by MTT assay; format: toxicity, cell-based; conditions: chlorocebus sabaeus, at 6.25 µg/mL, read-out: Activity
[17] = Cytotoxicity against african green monkey Vero cells assessed as cell viability at 3.125 ug/ml by MTT assay; format: toxicity, cell-based; conditions: chlorocebus sabaeus, at 3.125 µg/mL, read-out: Activity
[18] = Acute toxicity in Albino mouse assessed as change in hemoglobin level at 50 to 2000 mg/kg, po measured after 14 days (reference value: 12.8 g/dl); format: organism-based; conditions: in vivo, 336 h, dose 50-2000 mg/kg, time 14 day
[19] = Acute toxicity in Albino mouse assessed as change in neutrophils at 50 to 2000 mg/kg, po measured after 14 days (reference value: 75%); format: organism-based; conditions: in vivo, 336 h, dose 50-2000 mg/kg, time 14 day
[20] = Acute toxicity in Albino mouse assessed as change in eosinophils at 50 to 2000 mg/kg, po measured after 14 days (reference value: 3%); format: organism-based; conditions: in vivo, 336 h, dose 50-2000 mg/kg, time 14 day
[21] = Acute toxicity in Albino mouse assessed as change in serum creatine level at 50 to 2000 mg/kg, po measured after 14 days (reference value: 0.9 mg/dl); format: organism-based; conditions: in vivo, 336 h, dose 50-2000 mg/kg, time 14 day
[22] = Acute toxicity in Albino mouse assessed as change in serum urea level at 50 to 2000 mg/kg, po measured after 14 days (reference value: 46 mg/dl); format: organism-based; conditions: in vivo, 336 h, dose 50-2000 mg/kg, time 14 day
[23] = Acute toxicity in Albino mouse assessed as change in ALP level at 50 to 2000 mg/kg, po measured after 14 days (reference value: 28 IU/L); format: organism-based; conditions: in vivo, 336 h, dose 50-2000 mg/kg, time 14 day
[24] = test system: Mycolicibacterium smegmatis; experiment: Antibacterial activity against Mycobacterium smegmatis ATCC 14468 assessed as log2 fold change in L-(-)-methionine metabolite level by mass spectrometry analysis; format: functional
[25] = test system: Mycolicibacterium smegmatis; experiment: Antibacterial activity against Mycobacterium smegmatis ATCC 14468 assessed as log2 fold change in adenosine metabolite level by mass spectrometry analysis; format: functional
[26] = test system: Mycolicibacterium smegmatis; experiment: Antibacterial activity against Mycobacterium smegmatis ATCC 14468 assessed as log2 fold change in N-Acetyl-l-glutamic acid metabolite level by mass spectrometry analysis; format: functional
[27] = test system: Mycolicibacterium smegmatis; experiment: Antibacterial activity against Mycobacterium smegmatis ATCC 14468 assessed as log2 fold change in DL-gamma-Amino-beta-hydroxybutyric acid metabolite level by mass spectrometry analysis; format: functional
[28] = test system: Mycolicibacterium smegmatis; experiment: Antibacterial activity against Mycobacterium smegmatis ATCC 14468 assessed as log2 fold change in 24-methylenecholesterol metabolite level by mass spectrometry analysis; format: functional
[29] = Renal toxicity in Albino mouse assessed as change in distal convoluted tubules at 50 to 2000 mg/kg, po measured after 14 days; format: organism-based; conditions: in vivo, 336 h, dose 50-2000 mg/kg, time 14 day
[30] = Renal toxicity in Albino mouse assessed as extravasation of RBC at 50 to 2000 mg/kg, po measured after 14 days; format: organism-based, Erythrocyte; conditions: in vivo, 336 h, dose 50-2000 mg/kg, time 14 day
[31] = Renal toxicity in Albino mouse assessed as structural absorbability abnormalities at 50 to 2000 mg/kg, po measured after 14 days; format: organism-based; conditions: in vivo, 336 h, dose 50-2000 mg/kg, time 14 day
[32] = Hepatotoxicity in Albino mouse assessed as change in central vein at 50 to 2000 mg/kg, po measured after 14 days; format: toxicity, organism-based; conditions: in vivo, 336 h, dose 50-2000 mg/kg, time 14 day
[33] = Hepatotoxicity in Albino mouse assessed as change in portal vein at 50 to 2000 mg/kg, po measured after 14 days; format: toxicity, organism-based; conditions: in vivo, 336 h, dose 50-2000 mg/kg, time 14 day
[34] = Pulmonary toxicity in Albino mouse assessed as change in bronchi structure at 50 to 2000 mg/kg, po measured after 14 days; format: organism-based; conditions: in vivo, 336 h, dose 50-2000 mg/kg, time 14 day
[35] = Pulmonary toxicity in Albino mouse assessed as change in alveoli structure at 50 to 2000 mg/kg, po measured after 14 days; format: organism-based; conditions: in vivo, 336 h, dose 50-2000 mg/kg, time 14 day
[36] = Pulmonary toxicity in Albino mouse assessed as change in alveolar sacs at 50 to 2000 mg/kg, po measured after 14 days; format: organism-based; conditions: in vivo, 336 h, dose 50-2000 mg/kg, time 14 day
[37] = Pulmonary toxicity in Albino mouse assessed as appearance of cilia at 50 to 2000 mg/kg, po measured after 14 days; format: organism-based; conditions: in vivo, 336 h, dose 50-2000 mg/kg, time 14 day
[38] = test system: Mycolicibacterium smegmatis; experiment: Antibacterial activity against Mycobacterium smegmatis ATCC 14468 assessed as log2 fold change in l-Glutathione oxidized metabolite level by mass spectrometry analysis; format: functional

COc1ccc(C2C(Cl)C(=O)N2C2=C(Cl)C(=O)c3ccccc3C2=O)cc1 (centres undefined)
Activity [1]: inactive | log2FC [2]: -6.64 | log2FC [3]: -6.64 | log2FC [4]: -1.98 | log2FC [5]: -6.64 | log2FC [6]: -1.11 | log2FC [7]: -6.64 | log2FC [8]: -6.64 | log2FC [9]: -1.45 | log2FC [10]: -6.64 | log2FC [11]: 2.57 | log2FC [12]: 6.64 | log2FC [13]: 1.4 | log2FC [14]: 5.6 | viability at 12.5 ug/ml [15]: 68.1% | viability at 6.25 ug/ml [16]: 100% | viability at 3.125 ug/ml [17]: 100% | Activity [18]: 13.9 g/dL | Activity [19]: 62% | Activity [20]: 4% | Activity [21]: 0.8 mg/dL | Activity [22]: 50 mg/dL | Activity [23]: 44 IU/L | log2FC [24]: -5.44 | log2FC [25]: -2.55 | log2FC [26]: -1.34 | log2FC [27]: -2.72 | log2FC [28]: 1.74 | Activity [29]: Non-Toxic | Activity [30]: Non-Toxic | Activity [31]: Non-Toxic | Activity [32]: Non-Toxic | Activity [33]: Non-Toxic | Activity [34]: Non-Toxic | Activity [35]: Non-Toxic | Activity [36]: Non-Toxic | Activity [37]: Non-Toxic | log2FC [38]: -1.04

O=C1C(Cl)=C(Cl)C(=O)c2ccccc21 [Dichlon]
Activity [1]: inactive | log2FC [2]: -1.53 | log2FC [3]: -1.79 | log2FC [4]: -2.17 | log2FC [5]: -2.19 | log2FC [6]: -3.7 | log2FC [7]: -6.64 | log2FC [8]: -6.64 | log2FC [9]: -6.64 | log2FC [10]: -6.64 | log2FC [11]: 2.56 | log2FC [12]: 6.64 | log2FC [13]: 6.64 | log2FC [14]: 5.6 | viability at 12.5 ug/ml [15]: 100% | viability at 6.25 ug/ml [16]: 100% | viability at 3.125 ug/ml [17]: 100% | Activity [18]: 14.3 g/dL | Activity [19]: 43% | Activity [20]: 3% | Activity [21]: 0.8 mg/dL | Activity [22]: 51 mg/dL | Activity [23]: 33 IU/L | log2FC [24]: -3.97 | log2FC [25]: -1.31 | log2FC [26]: -0.61 | log2FC [27]: -2.75 | log2FC [28]: 2.01 | Activity [29]: Non-Toxic | Activity [30]: Non-Toxic | Activity [31]: Non-Toxic | Activity [32]: Non-Toxic | Activity [33]: Non-Toxic | Activity [34]: Non-Toxic | Activity [35]: Non-Toxic | Activity [36]: Non-Toxic | Activity [37]: Non-Toxic | log2FC [38]: -2.01

CN(C)c1ccc(C2C(Cl)C(=O)N2C2=C(Cl)C(=O)c3ccccc3C2=O)cc1 (centres undefined)
Activity [1]: inactive | log2FC [2]: -1.9 | log2FC [3]: -6.64 | log2FC [4]: -6.64 | log2FC [5]: -6.64 | log2FC [6]: -1.78 | log2FC [7]: -6.64 | log2FC [8]: -1.06 | log2FC [9]: -6.64 | log2FC [10]: -6.64 | log2FC [11]: 2.37 | log2FC [12]: 6.64 | log2FC [13]: 1.61 | log2FC [14]: 5.66 | viability at 12.5 ug/ml [15]: 79.5% | viability at 6.25 ug/ml [16]: 100% | viability at 3.125 ug/ml [17]: 100% | Activity [18]: 14.3 g/dL | Activity [19]: 60% | Activity [20]: 5% | Activity [21]: 0.7 mg/dL | Activity [22]: 48 mg/dL | Activity [23]: 52 IU/L | log2FC [24]: -4.48 | log2FC [25]: -1.69 | log2FC [26]: -1.04 | log2FC [27]: -1.1 | log2FC [28]: 0.69 | Activity [29]: Non-Toxic | Activity [30]: Non-Toxic | Activity [31]: Non-Toxic | Activity [32]: Non-Toxic | Activity [33]: Non-Toxic | Activity [34]: Non-Toxic | Activity [35]: Non-Toxic | Activity [36]: Non-Toxic | Activity [37]: Non-Toxic | log2FC [38]: -1.8
